Experimental findings from patent US20050090522A1 (priority 2001, published 2005) are described below.

Structures are written as SMILES. Where two headings read alike, the source gives them in different places. Some results are limits rather than exact numbers.

The subject of the test is HIV-1. Kind of test: HIV-1 single-round infectious luciferase reporter virus (pseudotype) assay in HeLa CD4 CCR5 cells. The format is cell-based. The procedure, abridged: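 Reporter pseudovirus produced in 293 cells infected HeLa cells expressing CD4/CCR5 at MOI ~0.01, with compound present at <10 μM final. Infection was quantified as luciferase luminescence after 72 h.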
For orientation: Reporter assays use an easily measured gene product as a stand-in for the process of interest.

[1] abbreviates: Human immunodeficiency virus 1, HeLa-CD4/CCR5, read-out: EC50 Group from Table 1, Table 4, HeLa CD4 CCR5 cells, single-round luciferase reporter virus.
Where [2] appears, read: Human immunodeficiency virus 1, HeLa-CD4/CCR5, read-out: EC50 Group from TABLE 1, HeLa CD4 CCR5 cells, single-round infectious luciferase reporter virus.

For orientation: EC50 means the concentration giving half of the maximal effect.

For `Cc1csc(-c2ccnc3c(C(=O)C(=O)N4CCN(C(=O)c5ccccc5)CC4)c[nH]c23)c1` [Example 134], under setting [1], the half-maximal effective concentration (EC50) is < 1 µM.

As for `C[C@@H]1CN(C(=O)c2ccccc2)CCN1C(=O)C(=O)c1c[nH]c2c(C(=O)NCc3ccc(C(F)(F)F)cc3)ccnc12` [Example 135, (R)-1-benzoyl-3-methyl-4-[(7-(4-trifluoromethylbenzylarmino)carbonyl-4-azaindol-3-yl)-oxoacetyl]piperazine], under setting [1], the EC50 is < 1 µM.

Take `Cc1csc(NC(=O)c2ccnc3c(C(=O)C(=O)N4CCN(C(=O)c5ccccc5)C[C@H]4C)c[nH]c23)n1` [Example 136, (R)-1-benzoyl-3-methyl-4-[(7-(4-methylthiazol-2-yl)aminocarbonyl-4-azaindol-3-yl)-oxoacetyl]piperazine]: the half-maximal effective concentration (EC50) under setting [1] is < 1 µM.

In the case of `C[C@@H]1CN(C(=O)c2ccccc2)CCN1C(=O)C(=O)c1c[nH]c2c(C(=O)Nc3nccs3)ccnc12` [Example 137, (R)-1-benzoyl-3-methyl-4-[(7-(thiazol-2-yl)aminocarbonyl-4-azaindol-3-yl)-oxoacetyl]piperazine], the EC50 under setting [1] was < 1 µM.

On to `COc1cnc(-c2cn(C)c(=O)cn2)c2[nH]cc(C(=O)C(=O)N3CCN(C(=O)c4ccccc4)CC3)c12` [Example 138, 1-(benzoyl)-4-[(4-methoxy-7-(1-methylpyrazin-2-on-5-yl)-6-azaindol-3-yl)-oxoacetyl]piperazine], for which the EC50 under setting [2] is < 1 µM.

Consider `C[C@@H]1CN(C(=O)c2ccccn2)CCN1C(=O)C(=O)c1c[nH]c2c(-c3cnccn3)ncc(F)c12` [Example 141], for which the EC50 under setting [2] was < 1 µM.

Take `Nc1cnc(-c2ncc(Cl)c3c(C(=O)C(=O)N4CCN(C(=O)c5ccccc5)CC4)c[nH]c23)cn1` [Example 143]: under setting [2], the EC50 is < 1 µM.

With `O=C(C(=O)N1CCN(C(=O)c2ccccc2)CC1)c1c[nH]c2c(-c3cncnc3)ncc(Cl)c12` [Example 144], under setting [2], the EC50 was < 1 µM.

With `O=C(Nc1cccnc1)c1ncc(F)c2c(C(=O)C(=O)N3CCN(C(=O)c4ccccc4)CC3)c[nH]c12` [Example 147], the concentration for a half-maximal effect (EC50) under setting [2] is < 1 µM.

For the compound `O=C(C(=O)N1CCN(C(=O)c2ccccc2)CC1)c1c[nH]c2c(-c3c[nH]c(=O)cn3)ncc(Cl)c12` [Example 149], the EC50 under setting [2] is < 1 µM.

For the compound `C[C@@H]1CN(C(=O)c2ccccc2)CCN1C(=O)C(=O)c1c[nH]c2c(-c3cnc(N)cn3)nccc12` [Example 150, (R)-1-benzoyl-3-methyl-4-[(7-(5-amino-pyrazin-2-yl)-6-azaindol-3-yl)-oxoacetyl]piperazine], the EC50 under setting [2] is < 1 µM.

As for `COc1cnc(-c2cncs2)c2[nH]cc(C(=O)C(=O)N3CCN(C(=O)c4ccccn4)CC3)c12` [Example 151, 1-picolinoyl-4-[(4-methoxy-7-(thiazol-5-yl)-6-azaindol-3-yl)-oxoacetyl]piperazine], the EC50 under setting [2] was < 1 µM.

Turning to `O=C(Nc1cccnc1)c1ncc(Cl)c2c(C(=O)C(=O)N3CCN(C(=O)c4ccccc4)CC3)c[nH]c12` [Example 152], the half-maximal effective concentration (EC50) under setting [2] was < 1 µM.

`C[C@@H]1CN(C(=O)c2ccccc2)CCN1C(=O)C(=O)c1c[nH]c2c(-c3cnc(N)nc3)nccc12` [Example 153, (R)-1-benzoyl-3-methyl-4-[(7-(2-amino-pyrimidin-5-yl)-6-azaindol-3-yl)-oxoacetyl]piperazine]: under setting [2], the concentration giving a half-maximal response (EC50) was < 1 µM.

For the compound `O=C(C(=O)N1CCN(C(=O)c2ccccc2)CC1)c1c[nH]c2c(-c3cccnn3)ncc(F)c12` [Example 154], the concentration for a half-maximal effect (EC50) under setting [2] is < 1 µM.

Take `COc1cnc(C2=NC(C)(C)CO2)c2[nH]cc(C(=O)C(=O)N3CCN(C(=O)c4ccccc4)CC3)c12` [Example 156]: under setting [2], the concentration giving a half-maximal response (EC50) was < 1 µM.

In the case of `C[C@@H]1CN(C(=O)c2ccccc2)CCN1C(=O)C(=O)c1c[nH]c2c(-c3cnc(O)cn3)nccc12` [Example 157], the EC50 under setting [2] was < 1 µM.

On to `C[C@@H]1CN(C(=O)c2ccccc2)CCN1C(=O)C(=O)c1c[nH]c2c(-c3cnc(O)nc3)nccc12` [Example 162], for which, under setting [2], the half-maximal effective concentration (EC50) is < 1 µM.

In the case of `C[C@@H]1CN(C(=O)c2ccccc2)CCN1C(=O)C(=O)c1c[nH]c2c(-c3ccc(C(=O)O)cc3)nccc12` [Example 164], the concentration for a half-maximal effect (EC50) under setting [2] was < 1 µM.

Consider `CC(C)(C)OC(=O)N1CCN(C(=O)C(=O)c2c[nH]c3c(-c4cnccn4)ncc(Cl)c23)CC1` [Example 165], for which the EC50 under setting [2] was < 1 µM.

In the case of `O=C(C(=O)N1CCN(C(=O)c2ccc(Br)o2)CC1)c1c[nH]c2c(-c3ncon3)ncc(F)c12` [Example 167], the 50% effective concentration (EC50) under setting [2] was < 1 µM.

Take `C[C@@H]1CN(C(=O)c2ccccc2)CCN1C(=O)C(=O)c1c[nH]c2c(C(=O)c3cccs3)ccnc12` [Example 168, 1-benzoyl-3-(R)-methyl-4-[(7-(2-thienylcarbonyl)-4-azaindol-3-yl)-oxoacetyl]piperazine]: the concentration for a half-maximal effect (EC50) under setting [1] was < 1 µM.

As for `COc1cnc(-c2cnc(NC(=O)c3ccncc3)s2)c2[nH]cc(C(=O)C(=O)N3CCN(C(=O)c4ccccc4)CC3)c12` [Example 169], the EC50 under setting [2] is < 1 µM.

Take `COc1cnc(-c2cnc(C)nc2)c2[nH]cc(C(=O)C(=O)N3CCN(C(=O)c4ccccc4)CC3)c12` [Example 171, 1-benzoyl-4-[(4-methoxy-7-(2-methyl-pyrimidin-5-yl)-6-azaindol-3-yl)-oxoacetyl]piperazine]: the concentration giving a half-maximal response (EC50) under setting [2] is < 1 µM.

On to `COc1cnc(-c2ccc3[nH]ccc3c2)c2[nH]cc(C(=O)C(=O)N3CCN(C(=O)c4ccccn4)CC3)c12` [Example 172, 1-picolinoyl-4-[(4-methoxy-7-(indol-5-yl)-6-azaindol-3-yl)-oxoacetyl]piperazine], for which, under setting [2], the concentration giving a half-maximal response (EC50) was < 1 µM.

On to `COc1cnc(-c2cscn2)c2[nH]cc(C(=O)C(=O)N3CCN(C(=O)c4ccccn4)CC3)c12` [Example 173, 1-picolinoyl-4-[(4-methoxy-7-(thiazol-4-yl)-6-azaindol-3-yl)-oxoacetyl]piperazine], for which the EC50 under setting [2] is < 1 µM.

As for `COc1cnc(-c2cscn2)c2[nH]cc(C(=O)C(=O)N3CCN(C(=O)c4ccccc4)CC3)c12` [Example 174, 1-benzoyl-4-[(4-methoxy-7-(thiazol-4-yl)-6-azaindol-3-yl)-oxoacetyl]piperazine], the half-maximal effective concentration (EC50) under setting [2] was < 1 µM.

For the compound `CCN(CC)CCN(C)c1cnc(-c2ncc(OC)c3c(C(=O)C(=O)N4CCN(C(=O)c5ccccc5)CC4)c[nH]c23)cn1` [Example 175, 1-benzoyl-4-[(4-methoxy-7-(2-(N-diethylaminoethyl-N-methyl)aminopyrazin-S-yl)-6-azaindol-3-yl)-oxoacetyl]piperazine], under setting [2], the EC50 is < 1 µM.

With `COc1cnc(-c2cnc(N(C)CCN(C)C)cn2)c2[nH]cc(C(=O)C(=O)N3CCN(C(=O)c4ccccc4)CC3)c12` [Example 176, 1-benzoyl-4-[(4-methoxy-7-(2-(N-dimethylaminoethyl-N-methyl)aminopyrazin-S-yl)-6-azaindol-3-yl)-oxoacetyl]piperazine], the EC50 under setting [2] is < 1 µM.

Turning to `COc1cnc(-c2cnc(N3CCNCC3)cn2)c2[nH]cc(C(=O)C(=O)N3CCN(C(=O)c4ccccc4)CC3)c12` [Example 177, 1-benzoyl-4-[(4-methoxy-7-(2-(N-piperazinyl)-pyrazin-5-yl)-6-azaindol-3-yl)-oxoacetyl]piperazine], the 50% effective concentration (EC50) under setting [2] is < 1 µM.

As for `COc1cnc(-c2cnc(N3CCOCC3)cn2)c2[nH]cc(C(=O)C(=O)N3CCN(C(=O)c4ccccc4)CC3)c12` [Example 178, 1-benzoyl-4-[(4-methoxy-7-(2-(4-morpholinyl)-pyrazin-5-yl)-6-azaindol-3-yl)-oxoacetyl]piperazine], the EC50 under setting [2] was < 1 µM.
